Measurements published in ChEMBL document CHEMBL1136673, “Synthesis of low molecular weight compounds with complement inhibition activity” (Bioorg Med Chem Lett, 2003).

Tests used:
Format in all cases: functional, organism-based
[1] = organism: Ovis aries; test: The concentration effective to cause 50% hemolysis with sensitized sheep erythrocytes in the absence of complement
[2] = organism: Ovis aries; test: The concentration required to inhibit complement mediated hemolysis of sensitized sheep RBC; not active
[3] = organism: Ovis aries; test: The concentration required to inhibit complement mediated hemolysis of sensitized sheep RBC
[4] = organism: Ovis aries; test: Concentration required to inhibit complement mediated hemolysis of sensitized sheep RBC
[5] = organism: Ovis aries; test: Concentration effective to cause 50% hemolysis with sensitized sheep erythrocytes in the absence of complement

Structure (SMILES)	EC50 [1]	IC50 [2]	IC50 [3]	IC50 [4]	EC50 [5]
COc1cccc(C(=O)O)c1	2.96 mM	Not Active			
c1ccc(Oc2cccc(-c3nn[nH]n3)c2)cc1	0.954 mM		0.798 mM		
COc1cccc(-c2nn[nH]n2)c1	> 3.41 mM		1.56 mM		
O=C(O)c1cccc(Oc2ccccc2)c1 [M-PHENOXYBENZOIC ACID FOR CIS-ISOMER]	> 2.8 mM		1.4 mM		
CCOc1cccc(-c2nn[nH]n2)c1	2.21 mM		0.631 mM		
COc1cccc(C=O)c1	> 4.41 mM			0.919 mM	
CCOc1cccc(C=O)c1			1 mM		> 4 mM
C[C@H]1[C@H](C)CC[C@]2(C(=O)O)CC[C@]3(C)C(=CC[C@@H]4[C@@]5(C)CC[C@H](O)C(C)(C)[C@@H]5CC[C@]43C)[C@H]12 [URSOLIC ACID]			0.0547 mM		
O=Cc1cccc(Oc2ccccc2)c1	> 0.0033 mM		1.39 mM		
CC1(C)CC[C@]2(C(=O)O)CC[C@]3(C)C(=CC[C@@H]4[C@@]5(C)CC[C@H](O)C(C)(C)[C@@H]5CC[C@]43C)[C@@H]2C1 [OLEANOLIC_ACID]			0.0766 mM		
CCOc1cccc(C(=O)O)c1	2.53 mM	Not Active			
